According to patent US11825838B2, “Tricyclic carboxamides for controlling arthropods” (Bayer CropScience Aktiengesellschaft, priority 2017, dated 2023):

Key:
Type in all cases: in vivo
Phaedon cochleariae = Phaedon cochleariae spray test (PHAECO); settings: for efficacy / pest or weed control at 100 g/ha: application rate 100 g/ha, spray, after 7 days; for pest or weed control at 100 g/ha: read-out: efficacy
Protocol: Phaedon cochleariae—Spray Test
(§1) To produce a suitable active ingredient formulation, 1 part by weight of active ingredient is dissolved with the specified parts by weight of solvent and made up to the desired concentration with water containing an emulsifier concentration of 1000 ppm. To produce further test concentrations, the formulation is diluted with emulsifier-containing water.
After 7 days, the efficacy in % is determined. 100% means that all the beetle larvae have been killed; 0% means that no beetle larvae have been killed.
Phaedon cochleariae—Spray Test (PHAECO)
as §1, with “compound” for “ingredient”
Discs of Chinese cabbage leaves (Brassica pekinensis) are sprayed with an active compound formulation of the desired concentration and, after drying, populated with larvae of the mustard beetle (Phaedon cochleariae).
After the desired time, the efficacy in % is determined. 100% means that all the beetle larvae have been killed; 0% means that no beetle larvae have been killed.

Spodoptera frugiperda = Spodoptera frugiperda spray test (SPODFR); settings: for efficacy / pest or weed control at 100 g/ha: application rate 100 g/ha, spray, after 7 days; for pest or weed control at 100 g/ha: read-out: efficacy
Protocol: Spodoptera frugiperda—Spray Test
as §1
Leaf discs of maize (Zea mays) are sprayed with an active ingredient formulation of the desired concentration and, after drying, populated with caterpillars of the armyworm (Spodoptera frugiperda).
After 7 days, the efficacy in % is determined. 100% means that all the caterpillars have been killed; 0% means that no caterpillar has been killed.
Spodoptera frugiperda—Spray Test (SPODFR)
as §1, with “compound” for “ingredient”
Leaf discs of maize (Zea mays) are sprayed with an active compound formulation of the desired concentration and, after drying, populated with caterpillars of the armyworm (Spodoptera frugiperda).
After the desired time, the efficacy in % is determined. 100% means that all the caterpillars have been killed; 0% means that no caterpillar has been killed.

Myzus persicae = Myzus persicae spray test (MYZUPE)
Protocol: Myzus persicae—Spray Test
as §1
Discs of Chinese cabbage leaves (Brassica pekinensis) infested by all stages of the green peach aphid (Myzus persicae) are sprayed with an active compound preparation of the desired concentration.
After 5 days, the efficacy in % is determined. 100% means that all the aphids have been killed; 0% means that no aphids have been killed.
Myzus Persicae—Spray Test (MYZUPE)
as §1, with “compound” for “ingredient”
Discs of Chinese cabbage leaves (Brassica pekinensis) infested with all stages of the green peach aphid (Myzus persicae) are sprayed with an active compound formulation of the desired concentration.
After the desired time, the efficacy in % is determined. 100% means that all the aphids have been killed; 0% means that no aphids have been killed.

Tetranychus urticae = Tetranychus urticae spray test, OP-resistant (TETRUR); settings: for efficacy: spray, after 6 days
Protocol: Tetranychus urticae—Spray Test, OP-Resistant
as §1
Discs of bean leaves (Phaseolus vulgaris) infested with all stages of the greenhouse red spider mite (Tetranychus urticae) are sprayed with an active compound preparation of the desired concentration.
After 6 days, the efficacy in % is determined. 100% means that all the spider mites have been killed; 0% means that no spider mites have been killed.
Tetranychus urticae—Spray Test; OP-Resistant (TETRUR)
as §1, with “compound” for “ingredient”
Discs of bean leaves (Phaseolus vulgaris) infested with all stages of the greenhouse red spider mite (Tetranychus urticae) are sprayed with an active compound formulation of the desired concentration.
After the desired time, the efficacy in % is determined. 100% means that all the spider mites have been killed; 0% means that no spider mites have been killed.

Rhipicephalus sanguineus = Rhipicephalus sanguineus in vitro contact test with adult brown dog ticks; settings: application rate 5 μg/cm^2 (=500 g/ha), after 48 h, adult dog ticks dead or moribund
Protocol: Rhipicephalus sanguineus—In Vitro Contact Tests with Adult Brown Dog Ticks
For the coating of the test tubes, 9 mg of active ingredient are first dissolved in 1 ml of acetone p.a. and then diluted to the desired concentration with acetone p.a. 250 μl of the solution are distributed homogeneously on the inner walls and the base of a 25 ml glass tube by turning and rocking on an orbital shaker (rocking rotation at 30 rpm for 2 h). With 900 ppm of active ingredient solution and internal surface area 44.7 cm^2, given homogeneous distribution, an area-based dose of 5 μg/cm^2 is achieved.
After the solvent has evaporated off, the tubes are populated with 5-10 adult dog ticks (Rhipicephalus sanguineus), sealed with a perforated plastic lid and incubated in a horizontal position in the dark at room temperature and ambient humidity. After 48 h, efficacy is determined. To this end, the ticks are knocked to the base of the tube and incubated on a hotplate at 45-50° C. for not more than 5 min. Ticks which remain motionless on the base or move in such an uncoordinated manner that they are unable to deliberately avoid the heat by climbing upwards are considered to be dead or moribund.
An efficacy of 100% means that all the ticks were dead or moribund. 0% efficacy means that none of the ticks were harmed.

[1] = test system: cattle ticks (Boophilus microplus) Parkhurst strain, SP-resistant; assay: Boophilus microplus dip test; settings: application rate 100 ppm, assessed after 7 days by laying of fertile eggs
Protocol: Boophilus microplus—Dip Test
Test animals: cattle ticks (Boophilus microplus) Parkhurst strain, SP-resistant
(§2) Solvent: dimethyl sulfoxide
10 mg of active ingredient are dissolved in 0.5 ml of dimethyl sulfoxide. To produce a suitable formulation, the active ingredient solution is diluted with water to the concentration desired in each case. This active ingredient formulation is pipetted into tubes. 8-10 engorged adult female cattle ticks (Boophilus microplus) are transferred into a further tube with holes. The tube is immersed into the active ingredient formulation, and all the ticks are completely wetted. After the liquid has run out, the ticks are transferred on filter discs into plastic dishes and stored in a climate-controlled room.
(§3) Efficacy is assessed after 7 days by laying of fertile eggs. Eggs which are not visibly fertile are stored in a climate-controlled cabinet until the larvae hatch after about 42 days. An efficacy of 100% means that none of the ticks has laid any fertile eggs; 0% means that all the eggs are fertile.

Lucilia cuprina = Lucilia cuprina test; settings: application rate 100 ppm, L1 larvae, after 2 days
Protocol: as §2
(§4) To produce a suitable active ingredient formulation, 10 mg of active ingredient are mixed with 0.5 ml of dimethyl sulfoxide, and the concentrate is diluted with water to the desired concentration.
About 20 L1 larvae of the Australian sheep blowfly (Lucilia cuprina) are transferred into a test vessel containing minced horsemeat and the active compound preparation of the desired concentration.
After 2 days, the rate of extermination in % is determined. 100% means that all the larvae have been killed; 0% means that no larvae have been killed.

Musca domestica = Musca domestica test; settings: application rate 100 ppm, adult houseflies, after 2 days
Protocol: as §2, §4
Vessels containing a sponge treated with sugar solution and the active ingredient formulation of the desired concentration are populated with 10 adult houseflies (Musca domestica).
After 2 days, the rate of extermination in % is determined. 100% means that all of the flies have been killed; 0% means that none of the flies have been killed.

Ctenocephalides felis = Ctenocephalides felis oral test; settings: application rate 100 ppm in citrated cattle blood, after 2 days
Protocol: Ctenocephalides felis—Oral Test
as §2
To produce a suitable active ingredient formulation, 10 mg of active ingredient are mixed with 0.5 ml of dimethyl sulfoxide. Dilution with citrated cattle blood gives the desired concentration.
About 20 unfed adult cat fleas (Ctenocephalides felis) are placed into a chamber which is closed at the top and bottom with gauze. A metal cylinder whose bottom end is closed with parafilm is placed onto the chamber. The cylinder contains the blood/active ingredient formulation, which can be imbibed by the fleas through the parafilm membrane.
After 2 days, the rate of extermination in % is determined. 100% means that all of the fleas have been killed; 0% means that none of the fleas have been killed.

Boophilus microplus = Boophilus microplus injection test; settings: application rate 20 μg/animal, assessed after 7 days by laying of fertile eggs
Protocol: Boophilus microplus—Injection Test
as §2
To produce a suitable active compound preparation, 10 mg of active compound are mixed with 0.5 ml of solvent and the concentrate is diluted to the desired concentration with solvent.
1 μl of the active ingredient solution is injected into the abdomen of 5 engorged adult female cattle ticks (Boophilus microplus). The animals are transferred into dishes and kept in a climate-controlled room.
as §3

Row | SMILES | efficacy (Phaedon cochleariae) | efficacy (Spodoptera frugiperda) | efficacy (rate of extermination) (Lucilia cuprina) | efficacy (rate of extermination) (Musca domestica) | efficacy (rate of extermination) (Ctenocephalides felis) | efficacy (Boophilus microplus) | further results
1 | CS(=O)(=O)NC(=O)c1csc(-c2cnn(-c3cccnc3)c2)n1 [Example No. 36 WO2012/000896, reference compound] | – | – | – | – | – | – | Emax at 500 g/ha (Phaedon cochleariae; Phaedon cochleariae, 168 h, PHAECO, 500 g ai/ha, 7 dat, read-out: % efficacy dat): 0%; Emax at 500 g/ha (Spodoptera frugiperda; Spodoptera frugiperda, 168 h, SPODFR, 500 g ai/ha, 7 dat, read-out: % efficacy dat): 0%; Emax at 100 g/ha (Myzus persicae; Myzus persicae, 144 h, MYZUPE, 100 g ai/ha, 6 dat, read-out: % efficacy dat): 0%; Emax at 500 g/ha (Tetranychus urticae; Tetranychus urticae, 144 h, TETRUR, 500 g ai/ha, 6 dat, read-out: % efficacy dat): 0%
2 | N#CC1(NC(=O)c2cc(-c3cnn(-c4c(Cl)cc(C(F)(C(F)(F)F)C(F)(F)F)cc4Cl)c3)sc2Br)CC1 [I-T1-2] | 100% | 100% | 100% | 100% | 100% | 100% | efficacy (Rhipicephalus sanguineus): 100%; efficacy [1]: 100%; efficacy (Myzus persicae; application rate 100 g/ha, spray, after 5 days): 100%; efficacy (Tetranychus urticae; application rate 20 g/ha): 90%
3 | Cn1cc(-c2cnn(-c3c(Cl)cc(C(F)(C(F)(F)F)C(F)(F)F)cc3Cl)c2)cc1C(=O)NC1(C#N)CC1 [I-T1-4] | 100% | – | 100% | – | 100% | 100% | –
4 | N#CC1(NC(=O)c2csc(-c3cnn(-c4c(Cl)cc(C(F)(C(F)(F)F)C(F)(F)F)cc4Cl)c3)n2)CC1 [I-T1-5, N-(1-cyanocyclopropyl)-2-{1-[2,6-dichloro-4-(1,1,1,2,3,3,3-heptafluoropropan-2-yl)phenyl]-1H-pyrazol-4-yl}-1,3-thiazole-4-carboxamide] | – | – | 80% | 90% | 100% | – | pest or weed control at 100 g/ha (Phaedon cochleariae; Phaedon cochleariae, 168 h): 100%
5 | O=C(NCc1ccccc1)c1cc(-c2cnn(-c3c(Cl)cc(C(F)(C(F)(F)F)C(F)(F)F)cc3Cl)c2)sc1Br [I-T1-6] | – | 100% | 95% | – | 100% | 100% | –
6 | O=C(NC1CC1)c1nc(-c2cnn(-c3c(Cl)cc(C(F)(C(F)(F)F)C(F)(F)F)cc3Cl)c2)sc1Cl [I-T1-7] | 83% | – | – | – | – | 100% | –
7 | O=C(NC1CC1)c1csc(-c2cnn(-c3c(Cl)cc(C(F)(C(F)(F)F)C(F)(F)F)cc3Cl)c2)n1 [I-T1-8] | 83% | – | 80% | – | 100% | – | –
8 | O=C(NC1CC1)c1cc(-c2cnn(-c3c(Cl)cc(C(F)(C(F)(F)F)C(F)(F)F)cc3Cl)c2)sc1I [I-T1-14] | 100% | 100% | 100% | 100% | 100% | 100% | efficacy (Rhipicephalus sanguineus): 100%; efficacy [1]: 100%; efficacy (Tetranychus urticae; application rate 100 g/ha): 100%
9 | N#CC1(NC(=O)c2cc(-c3cnn(-c4c(Cl)cc(C(F)(C(F)(F)F)C(F)(F)F)cc4Cl)c3)sc2I)CC1 [I-T1-15] | 100% | 100% | 100% | 100% | 100% | 100% | efficacy (Rhipicephalus sanguineus): 80%; efficacy (Tetranychus urticae; application rate 20 g/ha): 90%; efficacy (Tetranychus urticae; application rate 100 g/ha): 100%
10 | N#CC1(NC(=O)c2cc(-c3cnn(-c4c(Cl)cc(C(F)(C(F)(F)F)C(F)(F)F)cc4Cl)c3)sc2Cl)CC1 [I-T1-17, 2-chloro-N-(1-cyanocyclopropyl)-5-{1-[2,6-dichloro-4-(1,1,1,2,3,3,3-heptafluoropropan-2-yl)phenyl]-1H-pyrazol-4-yl}thiophene-3-carboxamide] | – | – | – | – | – | – | pest or weed control at 100 g/ha (Phaedon cochleariae; Phaedon cochleariae, 168 h): 100%; pest or weed control at 100 g/ha (Spodoptera frugiperda; Spodoptera frugiperda, 168 h): 100%; efficacy (Tetranychus urticae; application rate 20 g/ha): 100%; efficacy (Tetranychus urticae; application rate 100 g/ha): 100%
11 | CN(C(=O)c1cc(-c2cnn(-c3c(Cl)cc(C(F)(C(F)(F)F)C(F)(F)F)cc3Cl)c2)sc1Cl)C1(C#N)CC1 [I-T1-18, 2-chloro-N-(1-cyanocyclopropyl)-5-{1-[2,6-dichloro-4-(1,1,1,2,3,3,3-heptafluoropropan-2-yl)phenyl]-1H-pyrazol-4-yl}-N-methylthiophene-3-carboxamide] | – | – | – | – | – | – | pest or weed control at 100 g/ha (Phaedon cochleariae; Phaedon cochleariae, 168 h): 100%; pest or weed control at 100 g/ha (Spodoptera frugiperda; Spodoptera frugiperda, 168 h): 100%
